Entries after “also recorded” stand apart in the source; their conditions may differ.
Assays:
Male Sprague-Dawley rats [1] = test: Example 4: levosimendan bolus during cardiopulmonary resuscitation (VF cardiac arrest); format: in vivo, rat; conditions: for ETCO2 / Negative dP/dt / left ventricular diastolic pressure: post-resuscitation (FIG. 23)
Procedure: No anesthetic agents were initially administrated 30 min prior to inducing cardiac arrest. […] Right atrial pressure was measured with a high-sensitivity pressure transducer (model 42584-01; Abbott Critical Care System, North Chicago, Ill.). […] Blood temperature was measured with this sensor. […] Duplicate thermodilution curves were obtained and recorded with the aid of a cardiac output computer (CO-100; Institute of Critical Care Medicine, Palm Springs, Calif.). A PE 50 catheter was advanced through the left femoral artery into the thoracic aorta for sampling arterial blood for analysis of blood gases and for the measurement of aortic pressure with a high-sensitivity pressure transducer (model 42584-01; Abbott Critical Care System). Systolic, diastolic, and the interpreted mean arterial pressure were continuously recorded. […] A 4F polyethylene catheter (model C-PMS-401J; Cook Critical Care, Bloomington, Ind.) was next advanced through the right external jugular vein into the right atrium for inducing VF. A precurved guide wire, supplied with the catheter, was then advanced through the catheter into the right ventricle until an endocardial electrogram was observed. […] Current flow was then reduced to one half and continued for 3 min such as to prevent spontaneous defibrillation. VF was untreated for six min. […] Precordial compressions were performed with a pneumatically driven mechanical chest compressor. These procedures were previously described in greater detail (Von Planta I, supra) and are well-known to those of ordinary skill in the art (see e.g. Tang W, Weil M H, Sun S, Noc M, Yang L, Gazmuri R. Epinephrine increases the severity of postresuscitation myocardial dysfunction. Circulation 1995; 92: 3089-3093 and Sun S, Weil MH, Tang W, Povoas H, Mason E. Combined effect of buffer and adrenergic agent on postresuscitation myocardial function. Pharmacology 1999; 291 (2): 773-777).
Coincident with start of precordial compression, the animals were mechanically ventilated.

Male Sprague-Dawley rats [2] = test: Example 1: post-resuscitation myocardial dysfunction after VF cardiac arrest, drug infusion for 240 min post-resuscitation
male domestic pigs = test: Levosimendan on post-resuscitation myocardial function after beta-adrenergic blockade (propranolol); format: in vivo, pig; conditions: levosimendan added early postresuscitation after propranolol, in comparison with propranolol alone
Procedure: Anesthesia was initiated by intramuscular injection of ketamine (20 mg/kg) and completed by ear vein injection of sodium pentobarbital (30 mg/kg). Additional doses of sodium pentobarbital (8 mg/kg) were injected to maintain anesthesia at intervals of one hour. A cuffed endotracheal tube was advanced into the trachea. Animals were mechanically ventilated with a volume-controlled ventilator (Model MA-1, Puritan-Bennett, Carlsbad, Calif.) with a tidal volume of 15 mL/kg, peak flow of 40 L/min, and FiO2 of 0.21. End-tidal PCO2 (ETCO2) was monitored with an infrared analyzer (Model 01R-7101A, Nihon Kohden Corp, Tokyo, Japan). Respiratory frequency was adjusted to maintain PETCO2 between 35 and 40 mm Hg.
For the measurement of left ventricular functions, a 5.5/7.5 […] biplane with Doppler transesophageal echocardiographic transducer with 4-way flexure (Model 21363A, Hewlett-Packard Co., Medical Products Group, Andover, Mass.) was advanced from the incisor teeth into the esophagus for a distance of approximately 35 cm. For the measurement of aortic pressure, a fluid-filled catheter was advanced from the left femoral artery into the thoracic aorta. For the measurements of right atrial, pulmonary arterial pressures and blood temperature, a 7-French, pentalumen, thermodilution-tipped catheter was advanced from the left femoral vein and flow-directed into the pulmonary artery. A 7-French catheter was advanced from the left cephalic vein into the great cardiac vein for the measurement of great cardiac vein blood gases and lactate. For inducing VF, a 5-French pacing catheter (EP Technologies, Inc., Mountain View, Calif.) was advanced from the right cephalic vein into the right ventricle.
The investigators were blinded to the randomization. Cardiac arrest was induced with 1 to 2 mA AC delivered to the endocardium of the right ventricle. Mechanical ventilation was discontinued after onset of VF. At the end of the 7-min interval of untreated VF, precordial compression was started with a pneumatic piston-driven chest compressor (Thumper, Model 1000, Michigan Instruments, Grand Rapids, Mich.). […] The compression force was adjusted to decrease the anterior-posterior diameter of the chest by 25%. After 5 min of precordial compression, defibrillation was attempted with a 150 J biphasic waveform shock delivered between the right infraclavicular area and the cardiac apex. If an organized cardiac rhythm with mean aortic pressure of more than 60 mm Hg persisted for an interval of 5 min or more, the animal was regarded as successfully resuscitated. All animals had restoration of spontaneous circulation (ROSC) after electrical defibrillation, and were then randomized to three treatment groups: (1) propranolol (0.1 mg/kg bolus at 6 min of VF); (2) propranolol plus levosimendan (at 10 min after post resuscitation, 20 μg/kg over 10 min followed by 0.4 μg/kg/min for 220 min); and (3) equal volumes of saline as placebo.
Measurements were obtained over an interval of 4 hours following resuscitation. After 4 hours, animals were euthanized by intravenous injection of 150 mg kg^−1 pentobarbital. Autopsy was performed to document injuries to the bony thorax and the thoracic and abdominal viscera.

[3] = 20 μg/kg bolus during VF, vs placebo
[4] = 4-hour interval following resuscitation, vs saline placebo (FIG. 22)

C[C@@H]1CC(=O)NN=C1c1ccc(NN=C(C#N)C#N)cc1 [Levosimendan]
cumulative number of electrical shocks required for successful defibrillation (Male Sprague-Dawley rats [1]; [3]): significantly less
interval of CPR prior to successful resuscitation (Male Sprague-Dawley rats [1]; [3]): significantly shorter
MAP (Male Sprague-Dawley rats [1]; [4]): Significantly greater; also recorded: increases
cardiac index (Male Sprague-Dawley rats [1]; [4]): Significantly greater; also recorded: increases
dP/dt40 (Male Sprague-Dawley rats [1]; [4]): Significantly greater; also recorded: increases
CPP (Male Sprague-Dawley rats [1]; levosimendan vs placebo controls, prior to/or after administration): No differences
ST segment elevation (Male Sprague-Dawley rats [1]; post-resuscitation): lesser
ETCO2 (Male Sprague-Dawley rats [1]): increases
Negative dP/dt (Male Sprague-Dawley rats [1]): increases
left ventricular diastolic pressure (Male Sprague-Dawley rats [1]): decreased
ETCO2 (Male Sprague-Dawley rats [1]; listed as levosimendan): increased
Negative dP/dt (Male Sprague-Dawley rats [1]; listed as levosimendan): increased
left ventricular diastolic pressure (Male Sprague-Dawley rats [1]; listed as levosimendan): reduction
duration of post-resuscitation survival (Male Sprague-Dawley rats [1]; vs placebo): significantly increased
peripheral arterial resistance (PAR) (Male Sprague-Dawley rats [1]; vs saline placebo (FIG. 24)): significantly decreased
arterial pressures (Male Sprague-Dawley rats [2]; among the three groups, at PR10 and after administration of the drugs (FIG. 4)): No significant differences
cardiac index (Male Sprague-Dawley rats [2]; post-resuscitation (FIG. 6)): comparable increases in cardiac index
contractility as reflected in the dP/dt40 (Male Sprague-Dawley rats [2]; post-resuscitation (FIG. 9)): consistently greater increases in contractility
stroke volume (Male Sprague-Dawley rats [2]; post-resuscitation, initially (FIG. 7)): significantly greater stroke volumes
left ventricular diastolic (filling) pressures (Male Sprague-Dawley rats [2]; vs control and dobutamine-treated animals (FIG. 11)): substantially lower and near normal
post-resuscitation survival (Male Sprague-Dawley rats [2]; vs dobutamine and placebo (FIG. 12)): significantly longer post-resuscitation survival
systemic vascular (arterial) resistance (Male Sprague-Dawley rats [2]; vs placebo-treated controls (FIG. 8)): Comparable and significant reductions
EF (male domestic pigs): additional and significant increases
FAC (male domestic pigs): additional and significant increases
